One assay deals with Trichogramma nubilale. Nature of the assay: Contact toxicity against Trichogramma nubilale assessed as mortality after 24 hr by modified slight dry film method. It counts as functional.
Regarding `CC1(C)[C@H](/C=C(\Cl)C(F)(F)F)[C@@H]1C(=O)O[C@@H](C#N)c1cccc(Oc2ccccc2)c1` (relative stereo) [REL-LAMBDA CYHALOTHRIN], the LC50 is given as 13.69 mgAi/L and the LC95 came to 127.6 mgAi/L.
Take `CC[C@H](C)[C@H]1O[C@]2(C=C[C@@H]1C)C[C@@H]1C[C@@H](C/C=C(\C)[C@@H](O[C@H]3C[C@H](OC)[C@@H](O[C@H]4C[C@H](OC)[C@@H](O)[C@H](C)O4)[C@H](C)O3)[C@@H](C)/C=C/C=C3\CO[C@@H]4[C@H](O)C(C)=C[C@@H](C(=O)O1)[C@]34O)O2.CO[C@H]1C[C@H](O[C@H]2[C@H](C)O[C@@H](O[C@@H]3/C(C)=C/C[C@@H]4C[C@@H](C[C@]5(C=C[C@H](C)[C@@H](C(C)C)O5)O4)OC(=O)[C@@H]4C=C(C)[C@@H](O)[C@H]5OC/C(=C\C=C\[C@@H]3C)[C@]54O)C[C@@H]2OC)O[C@@H](C)[C@@H]1O` [ABAMECTIN]: the LC50 was determined as 3.57 mgAi/L and the LC95 was found to be 25.42 mgAi/L.
The corresponding values for `C/C(=N\C#N)N(C)Cc1ccc(Cl)nc1` [ACETAMIPRID] are 19.24 mgAi/L and 167.9 mgAi/L.
The corresponding values for `CC1(C)C(C=C(Cl)Cl)C1C(=O)OC(C#N)c1cccc(Oc2ccccc2)c1` (stereo not drawn) [ALPHA-CYPERMETHRIN] are 19.48 mgAi/L and 176.8 mgAi/L.
The corresponding values for `C=C(C)CNc1c([S+]([O-])C(F)(F)F)c(C#N)nn1-c1c(Cl)cc(C(F)(F)F)cc1Cl` (stereo not given) [BUTENE-FIPRONIL] are 0.0068 mgAi/L and 0.0419 mgAi/L.
In the case of `CNC(=O)Oc1cccc2ccccc12` [CARBARIL], the LC95 came to 5.71 mgAi/L.
In the case of `CCCCN(CCCC)SN(C)C(=O)Oc1cccc2c1OC(C)(C)C2` [CARBOSULFAN], the LC50 was 0.95 mgAi/L and the LC95 turned out to be 7.4 mgAi/L.
The corresponding values for `O=C(NC(=O)c1c(F)cccc1F)Nc1cc(Cl)c(Oc2ncc(C(F)(F)F)cc2Cl)c(Cl)c1` [CHLORFLUAZURON] are 7533 mgAi/L and 111205 mgAi/L.
On to `CCOP(=S)(OCC)Oc1nc(Cl)c(Cl)cc1Cl` [CHLORPYRIFOS], for which the LC50 worked out at 0.081 mgAi/L and the LC95 was found to be 0.45 mgAi/L.
Take `CC1(C)C(/C=C(\Cl)C(F)(F)F)C1C(=O)OC(C#N)c1cccc(Oc2ccccc2)c1` (stereo not given) [CYHALOTHRIN]: the LC50 is 10.98 mgAi/L and the LC95 was 93.25 mgAi/L.
For the compound `CC[S+]([O-])c1c(C#N)nn(-c2c(Cl)cc(C(F)(F)F)cc2Cl)c1N` (stereo not given) [ETHIPROLE], the LC50 is on record as 4.67 mgAi/L and the LC95 was 21.35 mgAi/L.
As to `COP(=S)(OC)Oc1ccc([N+](=O)[O-])c(C)c1` [FENITROTHION], the LC50 amounted to 2.1 mgAi/L and the LC95 was found to be 34.74 mgAi/L.
Take `CC1(C)C(C(=O)OC(C#N)c2cccc(Oc3ccccc3)c2)C1(C)C` (stereo not given) [FENPROPATHRIN]: the LC50 came out at 150.3 mgAi/L and the LC95 is on record as 1327.5 mgAi/L.
The corresponding values for `N#Cc1nn(-c2c(Cl)cc(C(F)(F)F)cc2Cl)c(N)c1[S+]([O-])C(F)(F)F` (stereo not given) [FIPRONIL] are 0.29 mgAi/L and 1.82 mgAi/L.
The corresponding values for `O=C(NC(=O)c1c(F)cccc1F)Nc1cc(Cl)c(OC(F)(F)C(F)F)c(Cl)c1` [HEXAFLUMURON] are 9672 mgAi/L and 51197 mgAi/L.
For the compound `O=[N+]([O-])/N=C1\NCCN1Cc1ccc(Cl)nc1` [IMIDACLOPRID], the LC50 was found to be 311.9 mgAi/L and the LC95 turned out to be 2675 mgAi/L.
The corresponding values for `O=[N+]([O-])/N=C1\NCCN1Cc1cnc(Cl)s1` [IMIDACLOTHIZ] are 75.27 mgAi/L and 636.5 mgAi/L.
The corresponding values for `CNC(=O)Oc1ccccc1C(C)C` [ISOPROCARB] are 0.12 mgAi/L and 0.95 mgAi/L.
The corresponding values for `CNC(=O)Oc1cccc(C)c1` [METOLCARB] are 0.53 mgAi/L and 5.2 mgAi/L.
For the compound `CCN(Cc1ccc(Cl)nc1)/C(=C/[N+](=O)[O-])NC` [NITENPYRAM], the LC50 is 4.37 mgAi/L and the LC95 came out at 31.37 mgAi/L.
Regarding `CCOP(=S)(OCC)O/N=C(\C#N)c1ccccc1` [PHOXIM], the LC50 stood at 0.14 mgAi/L and the LC95 stood at 1.35 mgAi/L.
Turning to `CCCSP(=O)(OCC)Oc1ccc(Br)cc1Cl` (stereo not given) [PROFENOFOS], the LC50 stood at 0.18 mgAi/L and the LC95 amounted to 1.73 mgAi/L.
The corresponding values for `CNC(=O)Oc1cc(C)cc(C(C)C)c1` [PROMECARB] are 0.32 mgAi/L and 1.91 mgAi/L.
The corresponding values for `CCc1ccc(C(=O)NN(C(=O)c2cc(C)cc(C)c2)C(C)(C)C)cc1` [TEBUFENOZIDE] are 3452 mgAi/L and 21616 mgAi/L.
The corresponding values for `N#C/N=C1\SCCN1Cc1ccc(Cl)nc1` [THIACLOPRID] are 56.73 mgAi/L and 461.2 mgAi/L.
`CN1COCN(Cc2cnc(Cl)s2)/C1=N\[N+](=O)[O-]` [THIAMETHOXAM]: the LC50 is 1.86 mgAi/L and the LC95 is reported as 13.35 mgAi/L.
`CCOP(=S)(OCC)Oc1ncn(-c2ccccc2)n1` [TRIAZOPHOS]: the LC50 worked out at 1.81 mgAi/L and the LC95 was 21.65 mgAi/L.

The subject of a further assay is Trichogramma nubilale.
IVERMECTIN came in with an LC50 of 2.36 mgAi/L and an LC95 of 15.2 mgAi/L.

The values above are taken from ChEMBL document CHEMBL3045809, “Susceptibility of adult Trichogramma nubilale (Hymenoptera: Trichogrammatidae) to selected insecticides with different modes of action” (Crop Prot, 2012).
